Measured values as given in patent publication US10004222B2, “Small molecule ice recrystallization inhibitors and methods of use thereof” (THE UNIVERSITY OF OTTAWA, priority 2012, dated 2018).
Several values for one entry are separate records, joined by “and”; a condition that tells them apart may be missing. Equal values may be shown once.

What was measured:
Type in all cases: cell-based, human
[1] = system: CD34+ cells (hematopoietic stem cells); experiment: post-thaw viability of CD34+ cells of cryopreserved umbilical cord blood, flow cytometry; details: for Post-Thaw Viab.: UCB Unit 27; for CD34+ cell viability compared with control: vs control that contained 10% DMSO only
Description: Whole umbilical cord blood (UCB) should be stored at room temperature (15-25° C.) and processed within 48 hrs of collection. UCB is removed from collection bag and spilt in equal parts into 50 mL Falcon tubes. No more than 25 mL of UCB should be added per Falcon tube. UCB is diluted with 6% hetastarch (Hespan) to obtain a final concentration of 1% hetastarch and incubated for 10 minutes at room temperature. The tubes are then centrifuged at 50 g at 10° C. for 15-20 minutes, depending on volume. The centrifuge should not brake to stop. For total volumes of 30 mL, 15-17 minute centrifugation is utilized and for total volumes of 35 mL, 17-20 minute centrifugation is utilized. The supernatant and buffy coat (plasma and leukocytes) are removed carefully (not collecting RBCs) from the tubes and collected into new 50 mL Falcon tubes. These tubes are centrifuged at 400 g and 10° C. for 10 mins to pellet cells. The centrifuge brake can now be utilized. Plasma is removed and kept in new 50 mL Falcon tubes on ice. The cell pellets resuspended and combined in plasma to a total volume of 20 mL to generate leukocyte concentrate (LC). The LC is kept on ice for the duration of its use. Total mononuclear (CD45^+) and CD34^+ (hematopoetic stem cells) cell concentrations and viability are determined by flow cytometry (see Flow Cytometry procedure below). Aliquots of LC (50,000 CD34^+ cells) are utilized for cryopreservation experiments (see Cryopreservation Experiments procedure below).
(§1) Aliquots of LC (50,000 CD34^+ cells) are added to 2.0 mL cryovials. For each experiment, four cryovials are prepared (two for post-thaw viability analysis using flow cytometry and two for functionality analysis using the colony forming unit assay). Cryovials are kept on ice until placement in −80° C. freezer. Cryovials are centrifuged at 400 g and 10° C. for 5 minutes to pellet cells. After centrifugation, the time taken until placement in −80° C. freezer should not exceed 10 minutes. Supernatant is removed by aspiration or by decanting, but preferably by aspiration. Plasma (volume depends on desired cryosolution concentration) is added and cells are suspended by pipetting. Pre-made cryosolutions (see Cryosolutions) are added (volume depends on desired cryosolution concentration) and mixed by pipetting. Cryovials are placed in a Mr. Frosty® rate controlled freezing container which is then placed in a −80° C. freezer for 24 hours. By placing the cryovials in the freezing container, their contents undergo a cooling rate of about −1° C. per minute. After 24 hours, the cryovials are transferred to a liquid nitrogen dewar for storage until thawed for analysis.
(§2) Cryosolutions are prepared in distilled autoclaved water supplemented with 0.9% saline and 5% dextran for cryopreservation experiments and diluted with different volumes of plasma in cryovials depending on desired concentration of ice recrystallization inhibitor. N-(4-chlorophenyl)-D-gluconamide (4a) and N-(2-fluorophenyl)-D-gluconamide (2a) are prepared at 25 mM and N-(4-methoxyphenyl)-D-gluconamide (3a) and N-(2,6-difluorobenzyl)-D-gluconamide (1b) are prepared at 55 mM. 100, 50, 33 or 20 μL of 25 mM N-(4-chlorophenyl)-D-gluconamide (4a) or N-(2-fluorophenyl)-D-gluconamide (2a) are added to cryovials containing 50,000 CD34^+ cells suspended in 0, 50, 67, or 80 μL of plasma, respectively, for a final IRI concentration of 25, 12.5, 8 or 5 mM, respectively. 100, 50, 33 or 20 μL of 55 mM N-(4-methoxyphenyl)-D-gluconamide (3a) or N-(2,6-difluorobenzyl)-D-gluconamide (1b) are added to cryovials containing 50,000 CD34^+ cells suspended in 0, 50, 67, or 80 μL of plasma, respectively, for a final IRI concentration of […], 18 or 11 mM, respectively.
Total mononuclear cell (CD45+) and progenitor cell (CD34+) viability is assessed by flow cytometry using International Society of Hematotherapy and Graft Engineering (ISHAGE) guidelines (J. Hematother. Stem Cell Res. 1996, 5, 213-226). […]

[2] = system: CD34+ cells (hematopoietic stem cells); experiment: colony forming unit (CFU) assay after cryopreservation of umbilical cord blood; details: for BFU-E / CFU-G / CFU-GEMM / CFU-GM / CFU-M / Total Number of Colonies: 10% DMSO, post-thaw, 14 days in Methocult; for combined results of the CFU assays vs control: UCB units 26, 27, 28 combined, FIG. 41
Description: as §1, §2
Cryovials are thawed in a 37° C. water bath and diluted with 900 μL of IMDM (10% FBS, 1% penicillin/streptomycin). Cryovials are placed on ice until washed. Samples are mixed by pipetting and 80 μL is transferred to a 15 mL Falcon tube. 5 mL of Iscove's Modified Dulbecco's Medium (IMDM) supplemented with 10% fetal bovine serum (FBS) is added and this mixture is centrifuged at 1100 rpm for six minutes to yield a cell pellet and a supernatant. The supernatant is removed by aspiration and the cell pellet is resuspended in 1 mL IMDM (2% FBS) to form a suspension. The suspension is mixed by pipetting. 150 μL of this cell suspension is added to 3 mL Methocult™ media and plating is performed in accordance with manufacturer's instruction. The suspension with Methocult™ media is mixed adequately by vortexing for 20 seconds. The contents are allowed to settle and bubbles are allowed to subside before plating (approximately 5-10 minutes). Using a 3 mL syringe and 16 gauge blunt needles, 2.5 mL of the cell suspension in Methocult™ is taken from the bottom. 1 mL of this 2.5 mL is added to two 5 mL cell culture dishes. The dishes are swirled to ensure cells in Methocult™ medium coat the entire bottom of the dish. A third 5 mL dish is prepared to contain distilled autoclaved water without a lid. These three 5 mL dishes are placed in a 100 mL plate; two 5 mL dishes contain 1 mL of cell suspension in Methocult™ medium with the lid on and one containing distilled autoclaved water with the lid off. The lid is placed on the 100 mL plate and stored in a 37° C. incubator (5% CO2) for two weeks.

[3] = system: CD34+ cells (hematopoietic stem cells); experiment: as above; details: 27.5 mM IRI, 10% DMSO; post-thaw, 14 days in Methocult

COc1ccc(NC(=O)[C@H](O)[C@@H](O)[C@H](O)[C@H](O)CO)cc1 [(3a), N-(4-methoxyphenyl)-D-gluconamide]
Post-Thaw Viab. ([1]; 11 mM IRI): 78% | CD34+ cell viability compared with control [1]: substantially similar to the control | BFU-E ([2]; 11 mM IRI): 20.5 | CFU-G ([2]; 11 mM IRI): 5.5 | CFU-GEMM ([2]; 11 mM IRI): 5.9 | CFU-GM ([2]; 11 mM IRI): 7.4 | CFU-M ([2]; 11 mM IRI): 0.9 | Total Number of Colonies ([2]; 11 mM IRI): 40.4 | Tot. No. Colonies ([2]; 11 mM IRI, UCB Unit 27): 33 and 37 | BFU-E ([2]; 18 mM IRI): 18.0 | CFU-G ([2]; 18 mM IRI): 8.8 | CFU-GEMM ([2]; 18 mM IRI): 2.8 | CFU-GM ([2]; 18 mM IRI): 11.3 | CFU-M ([2]; 18 mM IRI): 0.3 | Total Number of Colonies ([2]; 18 mM IRI): 36.0 | CFU-G ([2]; 27.5 mM IRI): 6.5 | CFU-GEMM ([2]; 27.5 mM IRI): 15.5 | CFU-GM ([2]; 27.5 mM IRI): 14.0 | Total Number of Colonies ([2]; 27.5 mM IRI): 74.5 | fold increase in functionality relative to the control ([2]; 27.5 mM vs DMSO only): 2.4 fold | BFU-E ([2]; 55 mM IRI): 24.5 | CFU-G ([2]; 55 mM IRI): 9.5 | CFU-GEMM ([2]; 55 mM IRI): 6.5 | CFU-GM ([2]; 55 mM IRI): 15.0 | CFU-M ([2]; 55 mM IRI): 1.0 | Total Number of Colonies ([2]; 55 mM IRI): 56.5 | combined results of the CFU assays vs control [2]: performed particularly well | BFU-E [3]: 35.0 | CFU-M [3]: 3.5

O=C(Nc1ccc(Cl)cc1)[C@H](O)[C@@H](O)[C@H](O)[C@H](O)CO [(4a), N-(4-chlorophenyl)-D-gluconamide]
Post-Thaw Viab. ([1]; 5 mM IRI): 88% | CD34+ cell viability compared with control [1]: substantially similar to the control | BFU-E ([2]; 5 mM IRI): 22.2 | CFU-G ([2]; 5 mM IRI): 4.2 | CFU-GEMM ([2]; 5 mM IRI): 6.8 | CFU-GM ([2]; 5 mM IRI): 11.5 | CFU-M ([2]; 5 mM IRI): 1.3 | Total Number of Colonies ([2]; 5 mM IRI): 46.0 | Tot. No. Colonies ([2]; 5 mM IRI, UCB Unit 27): 47 and 38 | BFU-E ([2]; 8 mM IRI): 17.0 | CFU-G ([2]; 8 mM IRI): 8.0 | CFU-GEMM ([2]; 8 mM IRI): 4.0 | CFU-GM ([2]; 8 mM IRI): 10.5 | CFU-M ([2]; 8 mM IRI): 0.5 | Total Number of Colonies ([2]; 8 mM IRI): 40.0 | BFU-E ([2]; 12.5 mM IRI): 44.0 | CFU-G ([2]; 12.5 mM IRI): 1.5 | CFU-GEMM ([2]; 12.5 mM IRI): 0.0 | CFU-GM ([2]; 12.5 mM IRI): 8.5 | CFU-M ([2]; 12.5 mM IRI): 3.0 | Total Number of Colonies ([2]; 12.5 mM IRI): 61.0 | BFU-E ([2]; 25 mM IRI): 37.0 | CFU-G ([2]; 25 mM IRI): 11.5 | CFU-GEMM ([2]; 25 mM IRI): 2.0 | CFU-GM ([2]; 25 mM IRI): 10.5 | CFU-M ([2]; 25 mM IRI): 2.0 | Total Number of Colonies ([2]; 25 mM IRI): 63.0 | fold increase in functionality relative to the control ([2]; 25 mM vs DMSO only): 2.0 fold | combined results of the CFU assays vs control [2]: performed particularly well

O=C(NCc1c(F)cccc1F)[C@H](O)[C@@H](O)[C@H](O)[C@H](O)CO [(1b), N-(2,6-difluorobenzyl)-D-gluconamide]
Post-Thaw Viab. ([1]; 11 mM IRI): 57% | CD34+ cell viability compared with control [1]: substantially similar to the control | BFU-E ([2]; 11 mM IRI): 25.3 | CFU-G ([2]; 11 mM IRI): 4.3 | CFU-GEMM ([2]; 11 mM IRI): 2.4 | CFU-GM ([2]; 11 mM IRI): 9.8 | CFU-M ([2]; 11 mM IRI): 1.5 | Total Number of Colonies ([2]; 11 mM IRI): 41.9 | Tot. No. Colonies ([2]; 11 mM IRI, UCB Unit 27): 31 and 30 | BFU-E ([2]; 18 mM IRI): 24.0 | CFU-G ([2]; 18 mM IRI): 9.5 | CFU-GEMM ([2]; 18 mM IRI): 7.5 | CFU-GM ([2]; 18 mM IRI): 11.0 | CFU-M ([2]; 18 mM IRI): 4.5 | Total Number of Colonies ([2]; 18 mM IRI): 56.5 | fold increase in functionality relative to the control ([2]; 18 mM vs DMSO only): 1.8 fold | CFU-G ([2]; 27.5 mM IRI): 3.0 | CFU-GEMM ([2]; 27.5 mM IRI): 3.5 | CFU-GM ([2]; 27.5 mM IRI): 11.0 | Total Number of Colonies ([2]; 27.5 mM IRI): 48.0 | BFU-E ([2]; 55 mM IRI): 29.5 | CFU-G ([2]; 55 mM IRI): 8.5 | CFU-GEMM ([2]; 55 mM IRI): 1.5 | CFU-GM ([2]; 55 mM IRI): 10.5 | CFU-M ([2]; 55 mM IRI): 0.5 | Total Number of Colonies ([2]; 55 mM IRI): 50.5 | combined results of the CFU assays vs control [2]: performed particularly well | BFU-E [3]: 28.5 | CFU-M [3]: 2.0

O=C(Nc1ccccc1F)[C@H](O)[C@@H](O)[C@H](O)[C@H](O)CO [(2a), N-(2-fluorophenyl)-D-gluconamide]
Post-Thaw Viab. ([1]; 5 mM IRI): 88% | CD34+ cell viability compared with control [1]: substantially similar to the control | Tot. No. Colonies ([2]; 5 mM IRI, UCB Unit 26): 48 and 66 and 42 | Tot. No. Colonies ([2]; 5 mM IRI, UCB Unit 27): 38 and 34 | combined results of the CFU assays vs control [2]: performed particularly well
